The text below walks through data of patent US20150025017A1, “COMPOSITIONS AND METHODS FOR TREATING CANCER” (Fred Hutchinson Cancer Research Center, priority 2012, published 2015).

For series [1], the system named is Cells expressing Ras. Description: sensitivity of Ras-expressing cells to drugs with reported splicing inhibition. Particulars: FIG. 11. Format: cell-based.
Series [2] concerns GSCs relative to NSCs (G166 or CB660 cells). Description: cell viability of GSC or NSC cells after SSA / SudC1 (AlamarBlue). The following applies: dilution series; FIGS. 3B and 3C. Format: cell-based, human. From the text:
(§1) Along with high MPM-2 staining, and little or no phosphorylated BubR1, this is consistent with a pre-anaphase arrest in which the mitotic checkpoint has not been triggered.
A general note: The colour change of resazurin is a common sign of viable cells or microbes.

The test system of series [3] is GSCs and NSCs. Description: cell cycle arrest after SSA or SudC1. Format: cell-based, human. The following applies: at doses within the efficacy window; data not shown.
Source text: as §1

Series [4] addresses U2 snRNP subunit SF3b (Homo sapiens, UniProt O75533+Q7RTV0). Particulars: Kaida et al. 2007; Corrionero et al. 2011; cited from earlier work.
Series [5] concerns H2B-GFP expressing GSCs. Description: metaphase capture assay with MG132. Format: cell-based, human. The following applies: overnight exposure to drug, then MG132 for 2 hours. The procedure: The GSC-specific G2/M arrest was characterized by performing metaphase capture assays in H2B-GFP expressing GSCs treated with proteasome inhibitor MG132, which arrests mitotic cells at metaphase, blocking APCCdc20-dependent degradation of Cyclin B (Lampson and Kapoor 2005). After overnight exposure to SudC1 or SSA, cells were treated with MG132 for 2 hours. […] It was also observed that the viability loss in drug-treated GSC cultures results from the death of previously arrested mitotic cells and not interphase GSCs, identifying the cancer-specific mitotic arrest as a causative event in cancer cell death due to splicing inhibition.

Series [6] relates to GSC-H2B-GFP cells. Description: live cell imaging of drug-treated cells. Format: cell-based, human. Particulars: for timing of mitoses: GSCs, first hours after drug treatment; for mitotic arrest in live cell imaging: data not shown.
The subject of series [7] is GSCs. Description: cell cycle arrest phenotype (rounded cells) in GFP-expressing GSCs after shRNA. Format: cell-based, human. The following applies: FIG. 2. From the text: Arrows point to rounded cells, which are those showing a cell arrest phenotype.
In addition, the GSC and NSC containing two of the shRNA sequences targeting PHF5α, KIF11 (positive control), and a random clone (negative control) were examined by immunofluorescence analysis using DAPI staining and a fluorescent microscope. Cells that appeared balled up are ones that suffered cell cycle arrest, while elongated cells were unaffected in their proliferation. […] In contrast, inhibition of PHF5α produced a striking phenotype of a G2/M mitotic arrest in GSCs, but not in NSCs (data not shown).
Ryzinski et al. (Cytogenet. […] Res. 121:232, 2008) identified PHF5α as a bridge protein capable of connecting members of the U2 snRNP, especially U2AF1 to RNA helicases, especially DDX1. To test whether, out of the possible known or unknown roles in a cell, the splicing functions of PHF5α is an important activity contributing to GSC survival and proliferation, shRNA knockdown similar to Example 2 was performed against each member of this bridging interaction—U2AF1 and DDX1.

Series [8] concerns RNA splicing in GSCs and NSCs. Description: splicing defects on gels after SudC1. It is filed as cell-based, human. Particulars: GSCs versus NSCs; FIG. 16. From the text:
This example also describes the effects of two candidate small molecule inhibitors of the U2 snRNP complex, Spliceostatin A (SSA) and Sudemycin C1 (SudC1). […] (Kaida et al. 2007; Corrionero et al. 2011). […] It was reasoned that if the most relevant GSC-specific function of PHF5A is its function in the splicing activity of the U2 snRNP, then these drugs should show a similar pattern of effects on RNA splicing in GSCs and NSCs. This was indeed the case. […] In addition, after PHF5A knockdown, multiple constitutive exons of the well characterized RTK/Ras signaling effector RAF1 and the cancer-associated deacetylase HDAC6 were skipped GSCs but not in normal NSCs.

Series [9] deals with RNA splicing. Particulars: Lagisetti et al. 2008, 2009; Fan et al. 2011; cited from earlier work.
In series [10] the test system is Non-transformed MEF cells. Description: viability after sudemycin treatment. It is filed as cell-based, mouse.
The subject of series [11] is normal IMR90 fibroblast cells. Description: drug response assay, alamarBlue viability. Particulars: 0.08-10.0 μM for 24 hours, viability at 72 hours; FIG. 9A. It is filed as cell-based, human. From the text:
(§2) Approximately 88% of clinical glioblastoma tumors harbor mutations that activate signaling through the Ras/PI3-kinase pathways (The Cancer Genome Atlas Research Network, Nature 455:1061, 2008). Since PHF5α inhibition is detrimental to a range of glioblastoma cell cultures, but not to the normal NSC from which most glioblastomas are thought to arise, transformation from a normal cell to a cancer cell was examined to determine whether PHF5α dependence was acquired during this process. Accordingly, Ras signaling was activated in normal IMR90 fibroblast cells by infecting with a retrovirus encoding the ElA and Ras oncogenes (EIA was included because Ras alone would be lethal in these cells). These partially transformed fibroblasts were probed for their response to shPHF5α inhibition and to a U2 snRNP splicing inhibitor (sudemycin C1). Viral shRNA knockdown was performed as described in the above examples. For drug response assays, cells were plated in 96-well plates and contacted with a range of sudemycin C1 concentrations (0.08, 0.16, 0.31, 0.63, 1.25, 2.50, 5.0 or 10.0 μM) for a period of 24 hours. Media was then removed and replaced with fresh media, then cell viability was measured 72 hours after drug exposure using the alamarBlue® assay (Invitrogen).

The test system of series [12] is IMR90+E1A/Ras. Description: drug response assay, alamarBlue viability. Format: cell-based, human. The following applies: 0.08-10.0 μM for 24 hours, viability at 72 hours; FIG. 9A.
Source text: as §2

Series [13] concerns MEF cells with the addition of oncogenic Ras signaling. Description: viability after sudemycin treatment. It is filed as cell-based, mouse.
Source text: as §2, with “(Invitrogen). […]” for “(Invitrogen).”

Series [14] concerns PHF5α. Description: immunostained western blot of PHF5α protein after shRNA. Format: cell-based, human. The following applies: GSCs (G166, 0827, 0131) and NSCs, relative to shCtrl; FIG. 1B. From the text: (B) is an immunostained western blot showing PHF5α protein levels are reduced in GSCs (G166, 0827, 0131) and NSCs when exposed to a short hairpin RNA (shRNA) that reduces PHF5α RNA levels (shPHF5α-133 (SEQ ID NO.:11), shPHF5α-402 (SEQ ID NO.:10), shPHF5α-861 (SEQ ID NO.:9)) relative to the levels of PHF5α in cells treated with a non-silencing control shRNA (shCtrl).
(§3) To verify the robustness and reproducibility of PHF5α loss in GSC growth inhibition, the normal NSC control cells and a panel of five GSC primary cell cultures were infected with viruses encoding three different shRNA sequences targeting PHF5α (shPHF5α-133 (SEQ ID NO.:11), shPHF5α-402 (SEQ ID NO.:10), and shPHF5α-861 (SEQ ID NO.:9)), as well as a positive control (shKIF11-555 (SEQ ID NO.:19); blocking kinesin family member 11 (KIF11) prevents centrosome migration, which arrests cells in mitosis) and negative control (shCtrl). Cultures were selected with puromycin, plated at about 1000 cells per well in 96-well plates, and incubated for one week at 37° C./5% CO2 before assaying cell viability using the alamarBlue® assay (Invitrogen, Gand Island, N.Y.). Briefly, resazurin (a blue compound that is non-toxic, cell permeable compound and essentially non-fluorescent) is added to the cell cultures, which is reduced to resorufin upon entering metabolically active cells (in contrast, non-viable or damaged cells cannot do this effectively). Resorufin is a bright red fluorescent molecule that functions as a colorimetric indicator. In addition, all three shRNA viruses were internally validated to knock down PHF5α at both the RNA and protein levels (data not shown).
In general terms: Immunoblotting shows a protein as a band on a membrane.

Series [15] deals with GSC primary cell cultures and normal NSC control cells. Description: alamarBlue cell viability after shRNA knockdown. It is filed as cell-based, human. Particulars: shRNA virus, puromycin selection, one week, FIG. 1A.
Source text: as §3

Chain of PHF5α (Q7RTV0 whole entry): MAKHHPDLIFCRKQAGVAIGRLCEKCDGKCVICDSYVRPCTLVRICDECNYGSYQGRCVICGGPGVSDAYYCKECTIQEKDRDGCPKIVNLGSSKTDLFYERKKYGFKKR

As for `Clc1ccccc1C(c1ccccc1)(c1ccccc1)n1ccnc1` [Clotrimazole], the “differential sensitivity of cells expressing Ras” value (“differential sensitivity” for short) in series [1] is listed as “not differentially sensitive”.

For the compound `CO[C@]1(C)C[C@@]2(CO2)[C@H](O)[C@@H](/C=C/C(C)=C/C[C@@H]2O[C@H](C)[C@H](NC(=O)/C=C\[C@H](C)OC(C)=O)C[C@@H]2C)O1` [SSA, Spliceostatin A], the “viability loss in GSCs relative to NSCs” value in series [2] was “greater dose-dependent viability loss in GSCs relative to NSCs”. For the same compound, the cell cycle arrest result in series [3] was “characteristic cell cycle arrest in GSCs but not NSCs”. Further, the “differential sensitivity” value in series [1] was “differentially sensitive”. In addition, the “binding and inhibition of SF3b” value in series [4] is “binds to and inhibits”. Moreover, the “metaphase arrest with MG132” value in series [5] was “unable to properly arrest”. Besides, in series [6], the timing of mitoses entry was “did not affect the timing of mitoses for several hours after drug treatment” and the “mitotic arrest in live cell imaging” value is on record as “mitotic arrest pre-metaphase”.

Consider `CCN1/C(=C/C(C)=O)Sc2ccc(OC)cc21` [TG003], for which, in [1], the “differential sensitivity” value is listed as “not differentially sensitive”.

For the compound `[H]/N=C(\N/C(=N/[H])NCCCCCCNC(=N)NC(=N)Nc1ccc(Cl)cc1)Nc1ccc(Cl)cc1` [chlorhexidine], in series [1], the “differential sensitivity” value is listed as “not differentially sensitive”.

As for `Fc1ccc(C(c2ccc(F)cc2)N2CCN(C/C=C/c3ccccc3)CC2)cc1` [flunarizine], the “differential sensitivity” value in series [1] was “not differentially sensitive”.

As to “DDX1-301: shRNA targeting DDX1, ACACGGTGTTCCTTATGTTATA, SEQ ID NO. 18 (listed as DNA, chemistry not fully specified)”, the cell cycle arrest result in [7] is listed as “undergone cell cycle arrest”.

On to Pladienolide B, for which the “differential sensitivity” value in series [1] was “differentially sensitive”.

As to Sudemycin C1 [SudC1], the splicing defects entry in [8] is on record as “dose-dependent GSC-specific splicing defects”. Besides, in series [2], the “viability loss in GSCs relative to NSCs” value was “greater dose-dependent viability loss in GSCs relative to NSCs”. In addition, in series [9], the “modulation of RNA splicing” value is “modulates RNA splicing”. Moreover, the cell cycle arrest entry in [3] is reported as “characteristic cell cycle arrest in GSCs but not NSCs”. Further, the “sensitivity of cell viability” value in [10] is given as “relatively resistant”; in series [11], “relatively resistant”; in [12], “greatly sensitized”; in series [13], “greatly sensitized”. Besides, the “differential sensitivity” value in series [1] is “differentially sensitive”. Also, the “metaphase arrest with MG132” value in series [5] is listed as “unable to properly arrest”. Moreover, the timing of mitoses result in series [6] is “did not affect the timing of mitoses for several hours after drug treatment”. Besides, the “mitotic arrest in live cell imaging” value in series [6] is “mitotic arrest pre-metaphase”.

“shPHF5α-133: shRNA targeting PHF5α, ACTCAACCAAGATCTTCTAAAA, SEQ ID NO. 11 (listed as DNA, chemistry not fully specified)”: the PHF5α protein levels entry in series [14] is listed as “reduced”. Besides, the “proliferation of GSCs compared to NSCs” value in series [15] was “greater reduction in proliferation of GSCs compared to normal neural stem cells”.

Take “shPHF5α-402: shRNA targeting PHF5α, AGCATTTACTTGTTTAACACTT, SEQ ID NO. 10 (listed as DNA, chemistry not fully specified)”: the PHF5α protein levels entry in series [14] is on record as “reduced”. Further, the “proliferation of GSCs compared to NSCs” value in series [15] is on record as “greater reduction in proliferation of GSCs compared to normal neural stem cells”.

With “shPHF5α-861: shRNA targeting PHF5α, CGCCCACTAGTCTCATATTATT, SEQ ID NO. 9 (listed as DNA, chemistry not fully specified)”, the PHF5α protein levels result in [14] is “reduced”. In series [7], the cell cycle arrest entry is “undergone cell cycle arrest”. Further, the “proliferation of GSCs compared to NSCs” value in [15] is reported as “greater reduction in proliferation of GSCs compared to normal neural stem cells”.

As for “shU2AF1-100: shRNA targeting U2AF1, CGGCTGTGATTGACTTGAATAA, SEQ ID NO. 1 (listed as DNA, chemistry not fully specified)”, the cell cycle arrest entry in series [7] is reported as “undergone cell cycle arrest”.
